Four compounds from article PMC10713593, “Staphylococcus aureus functional amyloids catalyze degradation of β-lactam antibiotics” (Nature Communications, 2023) can be followed below.

Values joined by “and” are separate entries in the source; they are usually repeats but may differ in a detail not shown here. Identical values can stand only once.

A short description of series [1]: Nitrocefin hydrolysis kinetics (absorbance of degraded nitrocefin at 480 nm; initial rates V0, Michaelis-Menten fit). The class given is biochemical. Also on record: Initial nitrocefin-degradation reaction rate, V0: unit not given here. The settings on record: for Initial nitrocefin-degradation reaction rate, V0: Hepes pH 7.4, average of the six runs. In short, it runs like this: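 Nitrocefin (up to 360 µM, diluted on ice in 50 mM Hepes pH 7.4) mixed with pre-incubated PSMα (510 µM solution); A480 read every 20 s for 2 h at 20 °C. V0 from first 15 min slopes, blank self-hydrolysis subtracted, fitted to Michaelis–Menten by non-linear regression; mean ± SEM, ≥5 repeats.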

Series [2] is classed as physicochemical. The settings on record: PSMα3 preformed fibrils 400 µM, titration pH 3 to 10 with NaOH 0.05M (Fig. S10).
Series [3] deals with T1, a2-PEG17K.
T1 construct: synthetic peptide, pre-assembled; modification not described beyond the name
The experiment in a line: Source-data fits for PSMα variants (170 µM): initial rates of nitrocefin hydrolysis (up to 240 µM) by absorbance at 480 nm in 50 mM Hepes pH 7.4 at 20 °C. The class given is biochemical. The note with it: read-out: Km [uM] (AVG, source data sheet 2c,d_titration of nitrocefin). As for the experimental part:
Nitrocefin, a β-lactam widely used as a surrogate substrate of Penicillin in β-lactamase activity assay, was used as a substrate. NC degradation was monitored for 2 h. Nitrocefin stock solution was dissolved in acetonitrile (20 mM) and then diluted with Hepes buffer (50 mM, pH 7.4) to nitrocefin concentration of 360 µM (further dilutions to lower concentrations were made with the 360 µM NC stock). All nitrocefin samples were kept on ice in cold conditions and any further dilution or mixing was performed in ice-cold conditions to avoid self-hydrolysis background reaction. […] Immediately after mixing the samples, the plate was transferred to 20̊ °C pre-cooled plate reader (Multiskan GO, Thermo Scientific, Waltham, MA) and shaken slowly for 10 s. Then, the absorbance of degraded nitrocefin was measured for 2 h at interval of 20 s at λ = 480 nm. Initial production rates (V0) were calculated by slope of the initial linear range of degraded-nitrocefin production at the first 15 min. […] The initial rate calculations were performed while also subtracting the self-degradation of the substrate, to ensure that this product absorbance is a result of PSMα presence.
The initial rates of degraded-nitrocefin production were calculated from the slopes of the first 15 min of measurement as reported above. […]

Series [4] has as its system Staphylococcus aureus (ATCC 25923). As to the kind of experiment: Staphylococcus aureus sensitivity to nitrocefin in the presence of PSMα (growth curves, OD 600 nm). The class given is cell-based. The settings on record: nitrocefin 100 µg/mL, LB, 37 °C, 16 h. As for the experimental part:
The antimicrobial activity of nitrocefin against Staphylococcus aureus (ATCC 25923) was examined in the presence or absence of pre-assembled PSMα3, while monitoring the growth of the bacterial strain. PSMα3 fibrils were prepared as described above, in aqueous solution, in concentration of 100 µM. The bacterial growth was monitored in bacterial growth curves prepared as following: 3 µL of S. aureus microbial culture (OD = 1) were added to 100 µL LB media (Difco Luria-Bertani medium, BD, France). The bacterial solution was supplemented with 100 µM of the PSMα3 solution (dissolved and preincubated in DIW) or equivalent volume of DIW as a control. Then, aqueous solution of nitrocefin was added to each sample, generating final concentration of 100 µg/mL. As control, the growth curve of S. aureus was examined without any additives. All the samples were incubated while shaking in sterile clear 96-well plates at 37 °C for 16 h, and the absorbance at 600 nm was monitored every 20 min steps by microplate reader (Varioskan Flash, Thermo Scientific, Waltham, MA). Measurements were performed at three biological replicates, each with five technical replicates. The values were plotted in the graph as mean ± SD of representative results.
Figure S15. The effects of PSMα1 and PSMα4 upon nitrocefin in physiological scenarios. […]

The format of series [5] is biochemical. The note with it: Aβ42 fibrils 100 µM, nitrocefin 170 µM, A480, two hours (Fig. S2).

For the compound `CSCC[C@H](N)C(=O)N[C@@H](CCC(=O)O)C(=O)N[C@@H](Cc1ccccc1)C(=O)N[C@H](C(=O)N[C@@H](C)C(=O)N[C@@H](CCCCN)C(=O)N[C@@H](CC(C)C)C(=O)N[C@@H](Cc1ccccc1)C(=O)N[C@@H](CCCCN)C(=O)N[C@@H](Cc1ccccc1)C(=O)N[C@@H](Cc1ccccc1)C(=O)N[C@@H](CCCCN)C(=O)N[C@@H](CC(=O)O)C(=O)N[C@@H](CC(C)C)C(=O)N[C@@H](CC(C)C)C(=O)NCC(=O)N[C@@H](CCCCN)C(=O)N[C@@H](Cc1ccccc1)C(=O)N[C@@H](CC(C)C)C(=O)NCC(=O)N[C@@H](CC(N)=O)C(=O)N[C@@H](CC(N)=O)C(=O)O)C(C)C` [PSMα3], the ATR-FTIR amide-I peak/maximum is 1660 cm⁻¹ and 1650 cm⁻¹. The “Initial nitrocefin-degradation reaction rate, V0” value in series [1] (PSMα 4.01424 uM, nitrocefin 60 µM) is 0.4242. Besides, in series [1] (PSMα 6.02136 uM, nitrocefin 60 µM), the “Initial nitrocefin-degradation reaction rate, V0” value is -0.2476. In addition, in series [1] (PSMα 9.03205 uM, nitrocefin 60 µM), the “Initial nitrocefin-degradation reaction rate, V0” value is on record as 0.6132. For the same compound, the “Initial nitrocefin-degradation reaction rate, V0” value in series [1] (PSMα 13.5481 uM, nitrocefin 60 µM) was 1.028. Moreover, the “Initial nitrocefin-degradation reaction rate, V0” value in series [1] (PSMα 20.3221 uM, nitrocefin 60 µM) turned out to be 0.7515. Moreover, in series [1] (PSMα 30.4832 uM, nitrocefin 60 µM), the “Initial nitrocefin-degradation reaction rate, V0” value is recorded as -1.835. Besides, the “Initial nitrocefin-degradation reaction rate, V0” value in series [1] (PSMα 45.7247 uM, nitrocefin 60 µM) came to 5.684. In series [1] (PSMα 68.5871 uM, nitrocefin 60 µM), the “Initial nitrocefin-degradation reaction rate, V0” value is 8.525. In series [1] (PSMα 102.881 uM, nitrocefin 60 µM), the “Initial nitrocefin-degradation reaction rate, V0” value was 29.1642. The “Initial nitrocefin-degradation reaction rate, V0” value in series [1] (PSMα 154.321 uM, nitrocefin 60 µM) came out at 32.1116. The “Initial nitrocefin-degradation reaction rate, V0” value in series [1] (PSMα 231.481 uM, nitrocefin 60 µM) is 46.236. The “Initial nitrocefin-degradation reaction rate, V0” value in series [1] (PSMα 347.222 uM, nitrocefin 60 µM) is recorded as 69.7594. Besides, the “nitrocefin degradation yield (turnover)” value in series [1] (nitrocefin 60 µM, PSMα assemblies 350 µM, Hepes 50 mM pH 7.4, 20 °C, A480, monitored 2 h (Fig. 2a)) is 75%. Moreover, in series [1] (peptide 170 µM, initial nitrocefin 107 µM, Hepes 50 mM pH 7.4, 20 °C, first 15 min (Fig. 3f)), the “initial rate of nitrocefin degradation reaction (V0)” value was “around 60 µM/h”. The “time to degrade the entire nitrocefin reservoir” value in series [1] (peptide 170 μM, nitrocefin 107 µM, Hepes pH 7.4 (Fig. 3e)) is reported as ~ 40 min. For the same compound, in series [2], the “pKa of the amines (first value)” value is reported as 7.8 and the “pKa of the amines (second value)” value was found to be 8.1.
For `O=C(Cc1cccs1)N[C@@H]1C(=O)N2C(C(=O)O)=C(/C=C/c3ccc([N+](=O)[O-])cc3[N+](=O)[O-])CS[C@H]12` [nitrocefin, 3-(2,4-Dinitrostyryl)-(6R,7R)-7-(2-thienylacetamido)-ceph-3-em-4-carboxylic acid], the Km in series [3] came to 2740 µM.
As to `O=C(Cc1cccs1)N[C@@H]1C(=O)N2C(C(=O)O)=C(C=Cc3ccc([N+](=O)[O-])cc3[N+](=O)[O-])CS[C@H]12` [nitrocefin, 3-(2,4-Dinitrostyryl)-(6R, 7R)−7-(2-thienylacetamido)-ceph-3-em-4-carboxylic Acid], the “effect of nitrocefin on bacterial growth” value in series [4] is listed as “significantly reduced bacterial proliferation”.
Consider “β-amyloid fibrils: Amyloid-β sequence 1-42 fibrils, control cross-β amyloid”, for which the “β-lactam (nitrocefin) degradation by control amyloid” value in series [5] was “very low β-lactam degradation”.
